Measurements from publication doi:10.1101/2021.12.13.472350v1, “An amphipathic and cationic antimicrobial peptide kills colistin resistant Gram-negative pathogens in vivo” (bioRxiv, 2021).
≈ marks a conversion by molar mass, not a printed value. Marks after values point to notes of the source that are not given here. Peptide text beside a SMILES is read from it.

What was measured:
[1] = tested on: Acinetobacter baumannii AB167
Eschericia coli ST131 = conditions: ST131, ESBL CTX-M-15; MHB-II, 37°C, ~5×10^5 CFU/ml, triplicate
Eschericia coli ML-35p = conditions: LacI- LacY- LacZ+, MHB-II, 37°C, ~5×10^5 CFU/ml, triplicate
[2] = tested on: Eschericia coli ATCC 25922; type: cell-based
[3] = tested on: Pseudomonas aeruginosa Q5
[4] = tested on: Acinetobacter baumannii CS01
[5] = tested on: Klebsiella pneumoniae ATCC 700603; conditions: ATCC 700603, SHV-18, mucoid; MHB-II, 37°C, ~5×10^5 CFU/ml, triplicate
[6] = tested on: Acinetobacter baumannii AB176R; conditions: AB176 lpxD::G739T (ΔlpxD), LPS deficient, MHB-II, 37°C, ~5×10^5 CFU/ml, triplicate
[7] = tested on: Pseudomonas aeruginosa PAO1
[8] = tested on: Eschericia coli BW25113 pACYC184; conditions: BW25113 with pACYC184; MHB-II, 37°C, ~5×10^5 CFU/ml, triplicate
[9] = tested on: Acinetobacter baumannii CR17; conditions: CR17, CS01 pmrA::M12K; MHB-II, 37°C, ~5×10^5 CFU/ml, triplicate
[10] = tested on: Pseudomonas aeruginosa ATCC 27853
E. coli ATCC 25922 [11] = assay: In vivo sepsis/peritonitis mouse infection model; conditions: NMRI mice infected IP; 10 mg/ml colistin as printed, IP at 1 and 3 h post infection
[12] = tested on: Acinetobacter baumannii AB176
E. coli ESBL20150072 = assay: In vivo sepsis/peritonitis mouse infection model; conditions: NMRI mice infected IP
Procedure: Outbred female NMRI mice (NMRI; weight 26–30 g; Taconic, Denmark) were used throughout the study, as previously described ([69], [70]). […] Colistin is recommended at a dose of 5-10 mg/kg, according to the European Medicines Agency (EMA) ([71]). The animals were kept in Macrolon type III cages in groups of six and allowed free access to feed and water. Experiments were initiated after an acclimatization period of 7 days. Inoculation (bacterial infection) was performed by intraperitoneal (IP) injection of 0.5 ml bacterial suspension containing 2×10^7 CFU/ml and 5% (wt/vol) mucin (Sigma-Aldrich). During experiments, groups of eight mice per cage constituting one experimental unit were randomly assigned to treatment (5 mg/kg ChIP and 10 mg/kg ChIP or colistin 10 mg/kg and 24 mg/kg) or no treatment (vehicle). Peptide and colistin was administered as a single bolus injection IP (volume injected 0.2 ml) at 1 hours and again 3. At various times post-infection, ∼200 µL blood from the jaw/cheek was collected in Eppendorf tubes with anti-coagulate (Sarstedt, Nümbrecht, Germany). Peritoneal lavage was performed by injecting 2.0 ml of sterile physiological saline IP. After 1 minute of abdominal massage, the peritoneum was opened and peritoneal lavage fluid (PLF) withdrawn. PLF was immediately placed in an insulated 4 °C cooling box for transportation and kept on ice at 4 °C. The mouse peritonitis model was repeated in duplicates for E. coli ATCC 25922 and A. baumannii ATCC 19606 nad in triplicate for E. coli ESBL20150072, while only a single experiment was carried out on A. baumannii CR17. Animals were sacrificed at various times prior to and following infection. Data from repeated experiments were pooled for analyses. Quantification of bacterial load was performed by spot plating of blood and peritoneal fluid samples from the mice. Dilution series were made in sterile 0.9% NaCl solution, from which 20 μl was spotted on solid lactose agar plates (Bromthymole Blue plates, SSI Diagnostica). Bacterial counts were recorded after overnight incubation at 37 °C in ambient air. The detection limit was 50 CFU/ml. The clinical condition of the mice was determined using a self-developed clinical score. For this score, mouse behavior and appearance were observed and evaluated for the parameters piloerection, attitude, locomotion, breathing and curiosity and awarded a score from 0 to 5 by a blinded observer. 0 = no clinical signs, 1 = slightly ruffled fur, 2 = ruffled fur and strenuous breathing, 3 = 2 plus lethargy, 4 = 3 plus hunched posture and decreased activity, and 5 = moribund. No significant difference in the clinical score between groups was observed 2 and 4 h post treatment. All mice were recorded for score 2.

E. coli ATCC 25922 [13] = assay: Time kill experiments; type: cell-based; conditions: detection limit 50 CFU
A. baumannii ATCC 19606 = assay: In vivo sepsis/peritonitis mouse infection model; conditions: NMRI mice infected IP, 10 mg/kg IP at 1 and 3 h
[14] = tested on: Klebsiella pneumoniae ATCC 13883; conditions: ATCC 13883
[15] = tested on: Acinetobacter baumannii ATCC 19606; conditions: ATCC 19606
[16] = tested on: Acinetobacter baumannii AB167R; conditions: AB167 lpxC::ISAba1, LPS deficient, MHB-II, 37°C, ~5×10^5 CFU/ml, triplicate
[17] = tested on: Pseudomonas aeruginosa SNRC (PAO1 background); conditions: colistin resistance evolved laboratory isolate, MHB-II, 37°C, ~5×10^5 CFU/ml, triplicate
[18] = tested on: Klebsiella pneumoniae ST512; conditions: ST512, KPC-3, ΔmgrB, L-Ara4N modified, mucoid; MHB-II, 37°C, ~5×10^5 CFU/ml, triplicate
[19] = tested on: Acinetobacter baumannii RC64; conditions: RC64, ATCC 19606 pmrB::R134C pmrB::A227V; MHB-II, 37°C, ~5×10^5 CFU/ml, triplicate

Q: Which results are given for `CC[C@H](C)CCCCC(=O)N[C@@H](CCN)C(=O)N[C@H](C(=O)N[C@@H](CCN)C(=O)N[C@H]1CCNC(=O)[C@H]([C@@H](C)O)NC(=O)[C@H](CCN)NC(=O)[C@H](CCN)NC(=O)[C@H](CC(C)C)NC(=O)[C@@H](CC(C)C)NC(=O)[C@H](CCN)NC1=O)[C@@H](C)O` [Colistin, colistin] (HELM PEPTIDE1{[CC[C@H](C)CCCCC(=O)[*:2]].[Dab].T.[Dab].[Dab].[Dab].[dL].L.[Dab].[Dab].T}$PEPTIDE1,PEPTIDE1,5:R3-11:R2$$$V2.0; N-terminus assumed; bridges inferred)?
A: MIC [1]: 0.5 µg/mL (≈ 0.428 µM); MIC (Eschericia coli ST131): 1 µg/mL (≈ 0.855 µM); MIC (Eschericia coli ML-35p): 0.25 µg/mL (≈ 0.214 µM); MIC [2]: 0.125-0.25* μg/ml; MIC [3]: >256 µg/mL; MIC [4]: 0.5 µg/mL (≈ 0.428 µM); MIC [5]: 2 µg/mL (≈ 1.71 µM); MIC [6]: >256 µg/mL; MIC [7]: 0.5 µg/mL (≈ 0.428 µM); MIC (Eschericia coli MG1655): 0.25 µg/mL (≈ 0.214 µM); MIC [8]: 0.5 µg/mL (≈ 0.428 µM); MIC [9]: >256 µg/mL; MIC [10]: 1 µg/mL (≈ 0.855 µM); peritoneal bacterial titers compared with ChIP 5 mg/kg (2 logs reduction, 1-5×10^5 CFU/ml) (E. coli ATCC 25922 [11]): similar; MIC (Eschericia coli AMA 817): 0.125 µg/mL (≈ 0.107 µM); MIC [12]: 0.5 µg/mL (≈ 0.428 µM); effect on peritoneal titers (E. coli ESBL20150072; 24 mg/kg IP at 1 and 3 h, mcr-1 genotype): no effect; bacterial blood stream titers (E. coli ESBL20150072; colistin 24 mg/kg, similar to vehicle control): ~1×10^6 CFU/ml; cell viability after treatment (E. coli ATCC 25922 [13]; 1xMIC): reduction in CFU to the detection limit; cell viability after treatment (E. coli ATCC 25922 [13]; 3xMIC, over the first 5 hours): reduction in CFU to the detection limit; reduction of peritoneal bacterial titers relative to saline control (A. baumannii ATCC 19606; after 5 hours): 3-4 log; peritoneal bacterial titers (A. baumannii ATCC 19606; after 5 hours, saline control around 1×10^8 CFU/ml): 1×10^3-1×10^4 CFU/ml; bacterial blood titers (A. baumannii ATCC 19606; detection limit 50 CFU/ml): reduce CFU/ml to the detection limit; MIC [14]: 0.5 µg/mL (≈ 0.428 µM); MIC [15]: 0.5 µg/mL (≈ 0.428 µM); MIC [16]: >256 µg/mL; MIC [17]: >256 µg/mL; MIC [18]: 128 µg/mL (≈ 109 µM); MIC (P. aeruginosa B3-CFI): >256 µg/mL; MIC [19]: 64 µg/mL (≈ 54.7 µM)
